target: Hematopoietic prostaglandin D synthase (Homo sapiens, UniProt O60760); test: Inhibition Assay: The test was carried out according to the method of Urade, Y. et al. (J. Biol. Chem., 262, 3820-3825, (1987)). More specifically, the reaction mixture (49 uL) containing 100 mM Tris-HCl (pH 8.0), 1 mM reduced glutathione, 0.1 mg/mL gamma-globulin, and human H-PGDS (q.s.), and a compound (final concentration: 0.01-100 uM) was preincubated at 25 C. for 5 minutes. Note that a DMSO solution (final concentration: 1%) was added to the solvent control group. Subsequently, 1 uL of [14C] prostaglandin H2 (final concentration: 10 uM) was added to start the reaction. One minute after the start of the reaction, 250 uL of a reaction stopper solution (diethylether/methanol/1 M citric acid (30/4/1) at a temperature of -20 C. was added to stop the reaction. After the reaction was stopped, 50 uL of the upper layer portion (organic solvent phase) was applied to a TLC plate and developed at -20 C. for 45 minutes.
Sequence (O60760 whole entry): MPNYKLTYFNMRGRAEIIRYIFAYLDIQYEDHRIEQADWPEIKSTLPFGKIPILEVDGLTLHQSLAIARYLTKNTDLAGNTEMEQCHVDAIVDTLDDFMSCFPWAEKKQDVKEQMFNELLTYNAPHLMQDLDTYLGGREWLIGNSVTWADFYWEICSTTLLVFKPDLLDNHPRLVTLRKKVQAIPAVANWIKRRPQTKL

**Q.** With Cn1cccc1C(=O)N1CCN(C(=O)Nc2ccc(N3CCC(C(=O)NCCN4CCOCC4)CC3)cc2)CC1 as the compound, how does the IC50 read?
**A.** 59 nM

**Q.** With Cn1cccc1C(=O)N1CCN(C(=O)Nc2ccc(N3CCC(CCN4CCOCC4)CC3)cc2)CC1 as the compound, how does the IC50 read?
**A.** 43 nM

**Q.** Which IC50 does the source give for Cn1cccc1C(=O)N1CCN(C(=O)Nc2ccc(N3CCC(CCn4ccnn4)CC3)cc2)CC1 here?
**A.** 71 nM

**Q.** Which IC50 does the source give for Cn1cccc1C(=O)N1CCN(C(=O)Nc2ccc(N3CCC(C(=O)N4CCCCC4)CC3)cc2)CC1 here?
**A.** 32 nM

**Q.** With Cn1cccc1C(=O)N1CCN(C(=O)Nc2ccc(N3CCC(CCn4cncn4)C3)cc2)CC1 (stereo unspecified) as the compound, how does the IC50 read?
**A.** 67 nM

**Q.** With Cn1cccc1C(=O)N1CCN(C(=O)Nc2ccc(N3CCC(CCCn4ccnn4)CC3)cc2)CC1 as the compound, how does the IC50 read?
**A.** 37 nM

**Q.** For CN1CCN(C(=O)C2CCN(c3ccc(NC(=O)N4CCN(C(=O)c5cccn5C)CC4)cc3)CC2)CC1, which IC50 is on record?
**A.** 60 nM

**Q.** Cn1cccc1C(=O)N1CCN(C(=O)Nc2ccc(N3CCC(CCn4cccn4)CC3)cc2)CC1 was tested. Which IC50 did it give?
**A.** 40 nM

**Q.** For Cn1cccc1C(=O)N1CCN(C(=O)Nc2ccc(N3CCC(CN4CCOCC4)CC3)cc2)CC1, which IC50 is on record?
**A.** 54 nM

**Q.** Cc1nc(C)n(CCC2CCN(c3ccc(NC(=O)N4CCN(C(=O)c5cccn5C)CC4)cc3)CC2)n1 was tested. Which IC50 did it give?
**A.** 85 nM

**Q.** How did the IC50 turn out when Cn1cccc1C(=O)N1CCN(C(=O)Nc2ccc(N3CCC(C(=O)NCc4cccnc4)CC3)cc2)CC1 was run?
**A.** 60 nM

From ChEMBL document CHEMBL3639064, “Piperazine compound capable of inhibiting prostaglandin D synthase” (2014)
